Data: patent US11642336B2, “5-HT2A agonists for use in treatment of depression” (priority 2019, dated 2023)
Where a name gives a salt, the structure may show the parent alone. Read-outs that look alike come from different tables or passages of the source. Marks after values point to notes of the source that are not given here.

Assays:
Assay type in all cases: cell-based
human 5-HT2A [1] = target: T1, human 5-HT2A (Homo sapiens (Human), UniProt P28223); assay: cell-based; details: IP assay; for 5-HT2A Rmax: % of Rmax of 5-HT; for EC50: duplicate determinations
human 5-HT2A [2] = target: T1, human 5-HT2A; assay: cell-based; details: for 5-HT2A Rmax ± S.E.M: % of the Rmax of 5-HT; for Selectivity EC50 5-HT2C/EC50 5-HT2A: Ca2+/Fluo-4 assay, bounds are conservative estimates
5-HT2B = 5-HT2B (Homo sapiens (Human), UniProt P41595); assay: IP assay (Eurofins, IP1 HTRF), HEK293 cells; details: for 5-HT2B Rmax: % of Rmax of 5-HT; for Selectivity EC50 5-HT2B/EC50 5-HT2A: bounds are conservative estimates; for EC50: duplicate determinations, read-out: 5-HT2B EC50;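 as to all read-outs here: agonist effect read as cellular IP1 production by HTRF using a europium cryptate anti-IP1 antibody donor and D2-labeled IP1 acceptor, eight compound concentrations in each cell line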
5-HT2C = 5-HT2C (Homo sapiens (Human), UniProt P28335); assay: Ca2+/Fluo-4 assay, stable h5-HT2C-HEK293 cell line; details: for 5-HT2C agonist activity (n.a./w.a.): tested up to 50 μM; for 5-HT2C Rmax ± S.E.M: % of the Rmax of 5-HT;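 as to all read-outs here: Agonist-induced intracellular Ca2+ rise read by Fluo-4 fluorescence in HEK293 cells stably expressing the human 5-HT2C receptor, each compound run in duplicate on three or more occasions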
Method: The functional properties of the compounds were characterised at stable HEK293 cell lines stably expressing the human 5-HT2A receptor or human 5-HT2C receptor in the Ca^2+/Fluo-4 assay essentially as previously described.^10 Briefly, the cells were split into poly-D-lysine-coated black 96-well plates with clear bottoms (6×10^4 cells/well). The following day the culture medium was aspirated and the cells were incubated in 50 μl assay buffer [Hanks Buffered Saline Solution containing 20 mM HEPES, 1 mM CaCl2, 1 mM MgCl2, 2.5 mM probenecid, pH 7.4] supplemented with 6 mM Fluo-4/AM at 37° C. for 1 hour. Next, the buffer was aspirated, the cells were washed once with 100 μl assay buffer, and then 100 μl assay buffer was added to the cells (in the antagonist experiments the compound was added at this point). […] The compounds were characterized in duplicate at least three times at each cell line.

[3] = agonist potency, n = 3-4, read-out: 5-HT2A EC50
[4] = agonist potency, n = 3-4, read-out: 5-HT2C EC50
[5] = agonist potency, n = 3-4, read-out: 5-HT2A [pEC50 ± S.E.M.] (converted)

Chain of 5-HT2B (P41595 whole entry, looked up): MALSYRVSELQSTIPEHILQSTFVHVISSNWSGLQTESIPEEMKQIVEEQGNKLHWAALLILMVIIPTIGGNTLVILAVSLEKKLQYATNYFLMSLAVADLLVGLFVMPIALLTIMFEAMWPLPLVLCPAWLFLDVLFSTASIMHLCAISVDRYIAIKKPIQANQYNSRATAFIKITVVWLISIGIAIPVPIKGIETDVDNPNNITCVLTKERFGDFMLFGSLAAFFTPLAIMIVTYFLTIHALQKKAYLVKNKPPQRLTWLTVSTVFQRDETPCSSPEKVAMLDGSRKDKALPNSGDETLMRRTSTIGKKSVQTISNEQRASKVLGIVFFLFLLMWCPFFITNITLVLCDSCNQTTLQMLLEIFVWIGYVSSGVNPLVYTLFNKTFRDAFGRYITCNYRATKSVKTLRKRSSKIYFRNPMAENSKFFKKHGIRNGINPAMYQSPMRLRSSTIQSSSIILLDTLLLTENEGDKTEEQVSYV
Chain of 5-HT2C (P28335 whole entry, looked up): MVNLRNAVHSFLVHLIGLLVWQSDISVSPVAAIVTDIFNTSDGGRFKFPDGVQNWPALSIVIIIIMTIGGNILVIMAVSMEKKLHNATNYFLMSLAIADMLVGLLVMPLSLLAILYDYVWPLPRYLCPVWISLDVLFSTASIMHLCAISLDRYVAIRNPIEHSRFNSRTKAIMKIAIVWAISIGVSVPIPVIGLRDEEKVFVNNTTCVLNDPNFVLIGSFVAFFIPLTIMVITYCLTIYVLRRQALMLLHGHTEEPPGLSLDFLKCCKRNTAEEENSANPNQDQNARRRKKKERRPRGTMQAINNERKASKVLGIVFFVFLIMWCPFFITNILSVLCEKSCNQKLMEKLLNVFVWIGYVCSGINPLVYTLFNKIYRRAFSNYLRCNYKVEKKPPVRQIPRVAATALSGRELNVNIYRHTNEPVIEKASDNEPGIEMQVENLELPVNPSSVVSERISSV

SMILES | 5-HT2A Rmax (human 5-HT2A [1]) | EC50 (human 5-HT2A [1]) | 5-HT2A Rmax ± S.E.M (human 5-HT2A [2]) | Selectivity EC50 5-HT2C/EC50 5-HT2A (human 5-HT2A [2]) | EC50 (human 5-HT2A [2]; [3]) | 5-HT2B Rmax (5-HT2B) | Selectivity EC50 5-HT2B/EC50 5-HT2A (5-HT2B) | EC50 (5-HT2B) | EC50 (5-HT2C; [4]) | 5-HT2C agonist activity (n.a./w.a.) (5-HT2C) | EC50 (human 5-HT2A [2]; [5]) | 5-HT2A [pEC50 ± S.E.M.] (human 5-HT2A [2]; agonist potency, n = 3-4) | 5-HT2C Rmax ± S.E.M (5-HT2C) | 5-HT2C [pEC50 ± S.E.M.] (5-HT2C; agonist potency, n = 3-4) | EC50 (5-HT2C; agonist potency, n = 3-4, read-out: 5-HT2C [pEC50 ± S.E.M.] (converted))
COc1cc([C@@H]2CCCNC2)c(OCF)cc1C(F)(F)F [Compound 39, (S)-3-(2-(fluoromethoxy)-5-methoxy-4-(trifluoromethyl)phenyl)piperidine] | 60% | 300 nM | 40 ± 5% | >300^e | 150 nM | 54% | 3.6 | 1100 nM |  |  |  |  |  |  | 
COc1cc(C(F)(F)F)c(F)cc1[C@@H]1CCCNC1.Cl [Compound 51, (S)-3-(5-fluoro-2-methoxy-4-(trifluoromethyl)phenyl)piperidine hydrochloride] | 59% | 260 nM | 79 ± 5% | >100^e | 140 nM | 37% | 2.8 | 740 nM |  |  |  |  |  |  | 
COc1cc([C@@H]2CCCNC2)c(OC)cc1Cl [Compound 10, (S)-3-(4-Chloro-2,5-dimethoxyphenyl)piperidine] | 62% | 380 nM |  |  | 66 nM | 50% |  | 240 nM | > 50000 nM | n.a. [@ 50 μM]^a (no agonist activity: the compound did not evoke significant responses at concentrations up to 50 μM) |  |  |  |  | 
CCOc1cc(CC)c(OC)cc1[C@@H]1CCCNC1 [Compound 43, (S)-3-(2-ethoxy-4-ethyl-5-methoxyphenyl)piperidine] | 45% | 670 nM | 42 ± 6% | >1,000^e | 140 nM | 11% | 1.6 | 1100 nM | > 50000 nM |  | 138 nM |  |  |  | 
COc1cc([C@@H]2CCCNC2)c(OC)cc1SC(C)C [Compound 26, (S)-3-(4-(isopropylthio)-2,5-dimethoxyphenyl)piperidine] | 72% | 1100 nM |  |  | 160 nM | 43% |  | 1200 nM |  |  | 155 nM |  |  |  | 
COc1cc(C(F)(F)F)ccc1[C@@H]1CCCNC1 [Compound 53, (S)-3-(2-methoxy-4-(trifluoromethyl)phenyl)piperidine hydrochloride] | 87% | 250 nM | 68 ± 2% |  | 69 nM | 51% |  | 940 nM |  | w.a. |  |  |  |  | 
COc1cc(C(F)(F)F)c(OC)cc1[C@@H]1CNC[C@@H](C)C1.Cl (relative stereo) [Compound 36, cis or trans 3-(2,5-dimethoxy-4-(trifluoromethyl)phenyl)-5-methylpiperidine hydrochloride] | 61% | 41 nM | 68 ± 2% | 8.2 | 48 nM | 39% | 2.9 | 120 nM | 400 nM |  |  | [7.32 ± 0.10] | 43 ± 6% | [6.40 ± 0.09] | 
CCOc1cc(C(F)(F)F)c(OCC)cc1[C@@H]1CCCNC1.Cl [Compound 22, (S)-3-(2,5-diethoxy-4-(trifluoromethyl)phenyl)piperidine hydrochloride] | 54% | 170 nM | 47 ± 6% | >300^e | 100 nM |  | >1,000^c | > 100000 nM |  |  | 102 nM |  |  |  | 
CCc1cc(OC)c([C@H]2CCCNC2)cc1OC [Compound 31, (R)-3-(4-ethyl-2,5-dimethoxyphenyl)piperidine hydrochloride] |  |  |  |  | 110 nM |  |  |  | 640 nM |  | 115 nM |  |  |  | 
COc1cc(C(F)(F)F)c(OC)cc1[C@H]1CCNC1 [Compound 5, (R)-3-(2,5-dimethoxy-4-(trifluoromethyl)phenyl)pyrrolidine] |  |  | 45 ± 1% | 3.7 | 11 nM |  |  |  |  |  | 10.5 nM |  | 65 ± 4% |  | 40.7 nM
COc1cc([C@@H]2CCCNC2)c(OC)cc1C.Cl [Compound 24, (S)-3-(2,5-dimethoxy-4-methylphenyl)piperidine hydrochloride] | 67% | 560 nM |  |  | 100 nM | 38% |  | 360 nM |  |  | 105 nM |  |  |  | 
